Experimental data from ChEMBL document CHEMBL4017469, “First insight into structure-activity relationships of selective meprin β inhibitors” (Bioorg Med Chem Lett, 2017).
One block for each compound: values may come before it.

How the values were obtained:
Meprin A subunit beta [1] = target: T1, Meprin A subunit beta (Homo sapiens, UniProt Q16820); assay: Inhibition of recombinant human meprin beta expressed in yeast using Abz-YVAEAPK(Dnp)G-OH as substrate by fluorescence assay
T1 sequence (Q16820 whole entry): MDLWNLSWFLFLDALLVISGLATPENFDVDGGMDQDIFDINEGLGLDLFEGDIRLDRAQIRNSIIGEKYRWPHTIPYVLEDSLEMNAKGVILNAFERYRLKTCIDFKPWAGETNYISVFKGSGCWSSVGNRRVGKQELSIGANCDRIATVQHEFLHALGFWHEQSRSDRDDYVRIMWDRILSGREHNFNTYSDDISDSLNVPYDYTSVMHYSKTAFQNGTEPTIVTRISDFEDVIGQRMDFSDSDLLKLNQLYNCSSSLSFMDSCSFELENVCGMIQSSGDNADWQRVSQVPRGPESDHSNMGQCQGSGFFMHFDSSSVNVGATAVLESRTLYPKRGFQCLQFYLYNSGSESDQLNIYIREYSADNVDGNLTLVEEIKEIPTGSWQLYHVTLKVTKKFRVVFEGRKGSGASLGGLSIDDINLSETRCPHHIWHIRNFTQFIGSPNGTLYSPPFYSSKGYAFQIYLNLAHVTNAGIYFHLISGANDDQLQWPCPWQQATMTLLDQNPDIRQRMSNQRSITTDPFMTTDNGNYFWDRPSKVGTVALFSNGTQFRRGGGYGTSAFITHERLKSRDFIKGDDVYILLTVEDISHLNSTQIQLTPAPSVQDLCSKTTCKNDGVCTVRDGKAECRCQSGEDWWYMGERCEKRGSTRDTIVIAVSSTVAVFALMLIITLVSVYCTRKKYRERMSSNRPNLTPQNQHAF

Meprin A subunit beta [2] = target: T1, Meprin A subunit beta; assay: Inhibition of recombinant human meprin beta expressed in baculovirus infected Sf9 insect cells using (MCA)-EDEDED-(K-epsilon-dnp) as substrate by fluorescence assay
Collagenase 3 [3] = target: T2, Collagenase 3 (Homo sapiens, UniProt P45452); assay: Inhibition of APMA-activated recombinant human MMP13 expressed in mouse NS0 cells at 200 uM using Mca-PLGL-(DapDnp)-AR-NH2 as substrate by fluorescence assay
Homo sapiens [4] = species on record: Homo sapiens; assay: Selectivity ratio of IC50 for recombinant human meprin alpha expressed in S2 insect cells to IC50 for recombinant human meprin beta expressed in yeast
Homo sapiens [5] = species on record: Homo sapiens; assay: Selectivity ratio of IC50 APMA-activated recombinant human MMP2 expressed in CHO cells to IC50 for recombinant human meprin beta expressed in yeast; type: cell-based
[6] = target: T3, Disintegrin and metalloproteinase domain-containing protein 10 (Homo sapiens, UniProt O14672); assay: Inhibition of recombinant human C-terminal His10-tagged ADAM10 expressed in baculovirus infected Sf21 cells at 200 uM using Abz-LANAVRSSSR-(DapDnp)-NH2 as substrate by fluorescence assay
T3 sequence (O14672 whole entry): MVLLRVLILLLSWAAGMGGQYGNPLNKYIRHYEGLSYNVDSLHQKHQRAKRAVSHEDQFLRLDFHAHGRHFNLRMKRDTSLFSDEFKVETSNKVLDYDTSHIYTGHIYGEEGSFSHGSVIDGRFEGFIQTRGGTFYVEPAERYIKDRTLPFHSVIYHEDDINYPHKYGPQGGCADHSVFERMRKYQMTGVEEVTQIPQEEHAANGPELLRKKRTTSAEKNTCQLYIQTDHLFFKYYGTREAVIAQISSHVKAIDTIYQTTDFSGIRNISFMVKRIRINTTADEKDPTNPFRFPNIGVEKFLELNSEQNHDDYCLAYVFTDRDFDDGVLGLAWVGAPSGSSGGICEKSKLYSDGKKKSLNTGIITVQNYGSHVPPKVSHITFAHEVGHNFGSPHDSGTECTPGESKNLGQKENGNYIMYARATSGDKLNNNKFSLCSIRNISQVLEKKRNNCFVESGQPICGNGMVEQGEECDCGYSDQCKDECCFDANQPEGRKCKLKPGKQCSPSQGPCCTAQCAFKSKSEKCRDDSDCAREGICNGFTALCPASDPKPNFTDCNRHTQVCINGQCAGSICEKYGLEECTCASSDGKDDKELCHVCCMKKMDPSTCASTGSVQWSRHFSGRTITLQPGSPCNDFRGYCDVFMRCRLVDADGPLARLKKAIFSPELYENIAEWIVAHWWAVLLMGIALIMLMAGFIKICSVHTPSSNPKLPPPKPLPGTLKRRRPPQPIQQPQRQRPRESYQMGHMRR

[7] = target: T4, 72 kDa type IV collagenase (Homo sapiens, UniProt P08253); assay: Inhibition of APMA-activated recombinant human MMP2 expressed in CHO cells at 200 uM using Mca-PLGL-(DapDnp)-AR-NH2 as substrate by fluorescence assay
Meprin A subunit alpha = target: T5, Meprin A subunit alpha (Homo sapiens, UniProt Q16819); assay: Inhibition of recombinant human meprin alpha expressed in S2 insect cells using Abz-YVADAPK(Dnp)G-OH as substrate by fluorescence assay
T5 sequence (Q16819 whole entry): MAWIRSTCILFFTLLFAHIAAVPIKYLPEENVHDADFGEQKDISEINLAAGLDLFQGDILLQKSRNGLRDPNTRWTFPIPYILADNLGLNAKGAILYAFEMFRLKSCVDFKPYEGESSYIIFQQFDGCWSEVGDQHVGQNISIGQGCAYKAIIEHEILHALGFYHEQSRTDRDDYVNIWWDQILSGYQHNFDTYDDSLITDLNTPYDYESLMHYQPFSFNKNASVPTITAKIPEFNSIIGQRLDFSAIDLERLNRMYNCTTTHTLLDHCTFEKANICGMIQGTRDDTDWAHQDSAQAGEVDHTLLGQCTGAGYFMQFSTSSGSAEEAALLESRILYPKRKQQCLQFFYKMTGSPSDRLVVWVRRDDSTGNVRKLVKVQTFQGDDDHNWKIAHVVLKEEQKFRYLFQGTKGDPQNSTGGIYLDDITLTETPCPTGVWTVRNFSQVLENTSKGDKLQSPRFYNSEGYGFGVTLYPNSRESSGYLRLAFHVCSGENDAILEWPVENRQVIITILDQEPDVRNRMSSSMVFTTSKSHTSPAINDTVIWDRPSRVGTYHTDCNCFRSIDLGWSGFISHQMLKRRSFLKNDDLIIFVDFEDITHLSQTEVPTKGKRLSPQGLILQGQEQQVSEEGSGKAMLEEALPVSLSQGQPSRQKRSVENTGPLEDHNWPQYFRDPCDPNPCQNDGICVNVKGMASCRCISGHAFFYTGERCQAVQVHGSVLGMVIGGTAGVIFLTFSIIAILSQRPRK

[8] = target: T6, Disintegrin and metalloproteinase domain-containing protein 17 (Homo sapiens, UniProt P78536); assay: Inhibition of recombinant human C-terminal His6-tagged ADAM17 expressed in baculovirus infected Sf21 cells at 200 uM using Abz-LANAVRSSSR-(DapDnp)-NH2 as substrate by fluorescence assay
[9] = target: T7, Matrix metalloproteinase-9 (Homo sapiens, UniProt P14780); assay: Inhibition of APMA-activated recombinant human MMP9 expressed in CHO cells at 200 uM using Mca-PLGL-(DapDnp)-AR-NH2 as substrate by fluorescence assay
Homo sapiens [10] = species on record: Homo sapiens; assay: Selectivity ratio of IC50 for recombinant human C-terminal His10-tagged ADAM10 expressed in baculovirus infected Sf21 cells to IC50 for recombinant human meprin beta expressed in yeast
Collagenase 3 [11] = target: T2, Collagenase 3; assay: Inhibition of APMA-activated recombinant human MMP13 expressed in mouse NS0 cells using Mca-PLGL-(DapDnp)-AR-NH2 as substrate by fluorescence assay
[12] = target: T4, 72 kDa type IV collagenase; assay: Inhibition of APMA-activated recombinant human MMP2 expressed in CHO cells using Mca-PLGL-(DapDnp)-AR-NH2 as substrate by fluorescence assay
[13] = target: T7, Matrix metalloproteinase-9; assay: Inhibition of APMA-activated recombinant human MMP9 expressed in CHO cells using Mca-PLGL-(DapDnp)-AR-NH2 as substrate by fluorescence assay
[14] = target: T3, Disintegrin and metalloproteinase domain-containing protein 10; assay: Inhibition of recombinant human C-terminal His10-tagged ADAM10 expressed in baculovirus infected Sf21 cells using Abz-LANAVRSSSR-(DapDnp)-NH2 as substrate by fluorescence assay
[15] = target: T6, Disintegrin and metalloproteinase domain-containing protein 17; assay: Inhibition of recombinant human C-terminal His6-tagged ADAM17 expressed in baculovirus infected Sf21 cells using Abz-LANAVRSSSR-(DapDnp)-NH2 as substrate by fluorescence assay
Meprin A subunit beta [16] = target: T1, Meprin A subunit beta; assay: Inhibition of human meprin beta expressed in baculovirus infected BTI-TN-5B1-4 insect cells using N-benzoyl-L-tyrosylp-aminobenzoic acid as substrate

T7 sequence (P14780 whole entry): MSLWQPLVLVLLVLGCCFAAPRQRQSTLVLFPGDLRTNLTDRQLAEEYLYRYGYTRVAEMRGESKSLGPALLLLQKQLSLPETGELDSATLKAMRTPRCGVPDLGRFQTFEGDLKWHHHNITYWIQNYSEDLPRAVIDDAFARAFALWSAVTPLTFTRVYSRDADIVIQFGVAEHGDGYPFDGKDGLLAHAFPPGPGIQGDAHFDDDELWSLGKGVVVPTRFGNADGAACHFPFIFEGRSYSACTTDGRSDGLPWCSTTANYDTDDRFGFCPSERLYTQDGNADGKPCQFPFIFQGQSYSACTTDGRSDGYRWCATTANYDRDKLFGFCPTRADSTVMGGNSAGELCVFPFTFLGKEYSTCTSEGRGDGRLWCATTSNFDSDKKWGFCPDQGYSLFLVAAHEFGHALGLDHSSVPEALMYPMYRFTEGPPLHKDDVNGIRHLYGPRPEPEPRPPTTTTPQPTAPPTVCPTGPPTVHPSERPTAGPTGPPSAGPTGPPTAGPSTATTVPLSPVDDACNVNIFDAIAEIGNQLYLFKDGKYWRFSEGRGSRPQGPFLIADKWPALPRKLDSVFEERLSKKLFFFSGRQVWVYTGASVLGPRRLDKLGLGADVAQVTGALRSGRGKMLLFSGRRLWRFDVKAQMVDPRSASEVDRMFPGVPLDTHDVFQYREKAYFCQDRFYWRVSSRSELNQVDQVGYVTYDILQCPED
T4 sequence (P08253 whole entry): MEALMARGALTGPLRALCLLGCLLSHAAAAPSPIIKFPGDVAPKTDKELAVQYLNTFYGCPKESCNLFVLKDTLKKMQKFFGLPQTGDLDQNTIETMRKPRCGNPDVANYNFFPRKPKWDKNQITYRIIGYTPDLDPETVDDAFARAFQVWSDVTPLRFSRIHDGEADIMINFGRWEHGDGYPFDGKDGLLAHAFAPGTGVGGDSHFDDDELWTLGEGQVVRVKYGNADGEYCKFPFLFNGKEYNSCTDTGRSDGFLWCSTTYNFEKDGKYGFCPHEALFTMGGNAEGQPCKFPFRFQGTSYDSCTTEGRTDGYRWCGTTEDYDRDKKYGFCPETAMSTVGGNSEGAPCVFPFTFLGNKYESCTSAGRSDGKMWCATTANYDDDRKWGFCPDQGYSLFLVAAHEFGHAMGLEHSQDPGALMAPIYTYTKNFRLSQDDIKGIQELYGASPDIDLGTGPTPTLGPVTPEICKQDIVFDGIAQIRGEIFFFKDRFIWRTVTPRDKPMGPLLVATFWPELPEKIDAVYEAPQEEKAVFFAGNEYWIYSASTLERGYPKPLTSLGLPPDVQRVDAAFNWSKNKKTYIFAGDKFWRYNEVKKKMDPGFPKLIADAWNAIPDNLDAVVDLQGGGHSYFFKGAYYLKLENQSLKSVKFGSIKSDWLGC
T6 sequence (P78536 whole entry, the tested form may be a part): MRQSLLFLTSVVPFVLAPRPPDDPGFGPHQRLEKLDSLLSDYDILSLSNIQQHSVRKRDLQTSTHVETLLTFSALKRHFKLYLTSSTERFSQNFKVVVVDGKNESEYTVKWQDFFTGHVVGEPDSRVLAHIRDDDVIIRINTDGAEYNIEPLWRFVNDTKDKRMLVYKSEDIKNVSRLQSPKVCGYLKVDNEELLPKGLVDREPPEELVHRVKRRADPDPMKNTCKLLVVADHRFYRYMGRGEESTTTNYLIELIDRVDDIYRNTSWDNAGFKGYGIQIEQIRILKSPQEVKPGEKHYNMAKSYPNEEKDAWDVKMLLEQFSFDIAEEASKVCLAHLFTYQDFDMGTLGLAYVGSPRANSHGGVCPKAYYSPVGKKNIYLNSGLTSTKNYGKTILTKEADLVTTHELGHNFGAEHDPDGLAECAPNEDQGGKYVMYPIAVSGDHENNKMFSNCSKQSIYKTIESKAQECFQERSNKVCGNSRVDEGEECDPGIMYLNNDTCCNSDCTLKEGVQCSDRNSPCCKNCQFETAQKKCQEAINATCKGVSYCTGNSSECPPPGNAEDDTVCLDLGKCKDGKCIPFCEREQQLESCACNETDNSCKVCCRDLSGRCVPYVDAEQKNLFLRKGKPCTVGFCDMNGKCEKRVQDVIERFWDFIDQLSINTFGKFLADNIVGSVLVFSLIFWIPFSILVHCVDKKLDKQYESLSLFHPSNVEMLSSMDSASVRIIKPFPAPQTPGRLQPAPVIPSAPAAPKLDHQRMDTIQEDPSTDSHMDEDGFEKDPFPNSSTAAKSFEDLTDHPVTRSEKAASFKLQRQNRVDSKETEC

SMILES: O=C(Nc1cc(C(=O)Nc2ccc(S(=O)(=O)O)cc2S(=O)(=O)O)cc(C(=O)Nc2ccc(S(=O)(=O)O)cc2S(=O)(=O)O)c1)Nc1cc(C(=O)Nc2ccc(S(=O)(=O)O)cc2S(=O)(=O)O)cc(C(=O)Nc2ccc(S(=O)(=O)O)cc2S(=O)(=O)O)c1
- Ki (Meprin A subunit beta [2]): 22 nM

SMILES: O=C(CN(Cc1cccc(C(=O)O)c1)S(=O)(=O)c1cccc(C(=O)O)c1)NO
- inhibition (INH) (Collagenase 3 [3]): Not Active
- Ratio IC50 (Homo sapiens [4]): 500
- Ratio IC50 (Homo sapiens [5]): > 100
- inhibition (INH) [6]: Not Active
- inhibition (INH) [7]: Not Active
- IC50 (Meprin A subunit alpha): 27400 nM
- inhibition (INH) [8]: Not Active
- inhibition (INH) [9]: Not Active
- Ratio IC50 (Homo sapiens [10]): > 100

SMILES: COc1ccc(S(=O)(=O)N(CCc2ccccc2)CC(=O)NO)cc1
- IC50 (Meprin A subunit beta [1]): 42900 nM

SMILES: COc1ccc(S(=O)(=O)N(C)CC(=O)NO)cc1
- IC50 (Meprin A subunit beta [1]): 32500 nM

SMILES: COc1ccc(S(=O)(=O)N(CC(=O)NO)Cc2ccc(C(=O)O)cc2)cc1
- IC50 (Meprin A subunit beta [1]): 980 nM

SMILES: O=C(CNS(=O)(=O)c1ccc(Cl)cc1)NO
- IC50 (Meprin A subunit beta [1]): 17200 nM

SMILES: COc1ccc(S(=O)(=O)N(CC(=O)NO)Cc2cccc(C(=O)O)c2)cc1
- IC50 (Collagenase 3 [11]): 0.3 nM
- IC50 [12]: 2 nM
- Ratio IC50 (Homo sapiens [4]): 60
- IC50 (Meprin A subunit alpha): 3290 nM
- IC50 [13]: 50 nM
- IC50 [14]: 11700 nM
- Ratio IC50 (Homo sapiens [10]): > 100
- IC50 [15]: 1240 nM

SMILES: O=C(CNS(=O)(=O)c1cc(Cl)c(O)c(Cl)c1)NO
- IC50 (Meprin A subunit beta [1]): 430 nM

SMILES: O=C(CN(Cc1cccc(C(=O)O)c1)S(=O)(=O)c1ccc(C(=O)O)cc1)NO
- IC50 (Meprin A subunit beta [1]): 320 nM

SMILES: CCCCC[C@H](CC(=O)NO)C(=O)N[C@H](C(=O)N1CCC[C@H]1CO)C(C)C [ACTINONIN]
- Ki (Meprin A subunit beta [16]): 2000 nM

The next lines start with the values.

- IC50 (Meprin A subunit beta [1]): 220 nM
SMILES: O=C(CCNS(=O)(=O)c1cccc(C(=O)O)c1)NO

- IC50 (Meprin A subunit beta [1]): 5030 nM
SMILES: O=C(O)Cc1ccc(S(=O)(=O)NCC(=O)NO)cc1

- IC50 (Meprin A subunit beta [1]): 400 nM
SMILES: O=C(CCNS(=O)(=O)c1cc(Cl)c(O)c(Cl)c1)NO

- IC50 (Meprin A subunit beta [1]): 310 nM
SMILES: O=C(CNS(=O)(=O)c1cccc(C(=O)O)c1)NO

- IC50 (Meprin A subunit beta [1]): 340 nM
SMILES: O=C(CCNS(=O)(=O)c1ccc(C(=O)O)cc1)NO
